Columns and labels:
[1] = target: T1, histamine H2 -receptors (Cavia porcellus, UniProt P47747); test: In vitro inhibition of histamine-induced tachycardia (positive chronotropic effect) in isolated guinea pig atria; settings: Krebs-Henseleit pH 7.4, 32° C., histamine 10^-6 g/ml, 30 min contact
T1 construct: isolated guinea pig atria suspended in an organ bath; from tissue; host or cells: isolated guinea pig atria
Experimental: The myocardial preparation, loaded with 1 gm isometric tension, was allowed to stabilize 60 minutes, and myocardial contractions were recorded through an isometric lever connected to a strain-gauge coupler, and the instantaneous rate was monitored with a cardiotachometer and a heat-writing pen recorder. After two control responses to histamine (10^-6 g/ml) the test compound was added to the bath at the desired final concentration and left for 30 minutes before the atria were again challenged with histamine. The chronotropic obtained in the presence of the antagonist was then compared to the control response to histamine, and the percent reduction of the histamine H2 -evoked response was calculated. […] 3, Smooth muscle, Ed. Daniel, E. E. Paton, M., Plenum Press, New York (1975); Ash and Schild, Br. J.Pharmacol. Chemother. 27, 427-439, 1966.

[2] = target: T2, histamine H2 -receptors (Rattus norvegicus, UniProt P25102); test: In vivo antisecretory activity on histamine-induced gastric secretion of acid (stomach-perfused rat); settings: iv, histamine 1 mg/kg/hr, values expressed as base, read-out: ED50, inhibition of histamine-induced gastric secretion
T2 construct: intravenous or intraduodenal administration in stomach-perfused rats; from tissue; host or cells: stomach of the anesthetized living rat (in vivo)
T2 sequence (P25102 whole entry, the tested form may be a part): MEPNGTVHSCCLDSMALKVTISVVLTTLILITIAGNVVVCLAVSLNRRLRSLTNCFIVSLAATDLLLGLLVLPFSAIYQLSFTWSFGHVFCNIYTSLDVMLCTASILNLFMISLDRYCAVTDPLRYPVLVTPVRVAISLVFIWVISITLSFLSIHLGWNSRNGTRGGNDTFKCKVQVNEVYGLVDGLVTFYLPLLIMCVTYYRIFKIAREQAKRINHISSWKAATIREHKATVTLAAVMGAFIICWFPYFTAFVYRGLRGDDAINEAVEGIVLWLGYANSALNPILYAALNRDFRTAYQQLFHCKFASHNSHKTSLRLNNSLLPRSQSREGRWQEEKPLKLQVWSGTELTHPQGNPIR
Text: The ability of the test compounds to inhibit histamine-induced gastric secretion of acid was investigated after intravenous or intraduodenal administration in stomach-perfused rats, according to Gosh and Schild, Br. J. Pharmacol. Chemother. 13, 54, (1958).
The preparation of the animals under general anesthesia (urethane, 1 g/kg i.p.) and constant temperature, was achieved by inserting and tying in place polyethyl tubes (PE 50) in the esophagus and in the pyloricantral region. After the stomach was washed to remove residual of foods, continuous perfusion of the stomach was started with saline, 0.5 ml/min. (37° C.), primed by a Jobling peristaltic pump. After 30 minutes of perfusion adaptation, the stomach perfusate was collected in 30 min. samples, and titrated for acid content, expressed as μEq of NaOH 1N. As control acid output became constant, intravenous perfusion of histamine (1 mg/kg/hr) was started and maintained throughout the experimental period. After the acid secretion had reached the steadily higher level, increasing doses of the test compounds were injected intravenously in order to obtain dose-response functions. The ED50 was then calculated by standard procedure.

[3] = test system: Swiss mice; test: Acute toxicity, single oral dose in Swiss mice; assay type: in vivo; settings: 500 mg/kg, fasted 18 hours, mortality at 14 days, values expressed as base
Experimental: The acute toxicity of the particularly preferred compounds of the formula I was approximately determined by oral administration of a single dose to groups of 5 Swiss mice, fasted for 18 hours before the test. The evaluation of the incidence of mortality was considered 14 days after the administration. The results are shown in the following table, in which the values are expressed taking the compound as a base.

[4] = test system: gastric acid secretion; settings: cited from earlier work; for inhibition of gastric acid secretion relative to cimetidine: in vivo, literature
[5] = test system: H2 -receptor; settings: in vitro, literature; cited from earlier work

T1 sequence (P47747 whole entry): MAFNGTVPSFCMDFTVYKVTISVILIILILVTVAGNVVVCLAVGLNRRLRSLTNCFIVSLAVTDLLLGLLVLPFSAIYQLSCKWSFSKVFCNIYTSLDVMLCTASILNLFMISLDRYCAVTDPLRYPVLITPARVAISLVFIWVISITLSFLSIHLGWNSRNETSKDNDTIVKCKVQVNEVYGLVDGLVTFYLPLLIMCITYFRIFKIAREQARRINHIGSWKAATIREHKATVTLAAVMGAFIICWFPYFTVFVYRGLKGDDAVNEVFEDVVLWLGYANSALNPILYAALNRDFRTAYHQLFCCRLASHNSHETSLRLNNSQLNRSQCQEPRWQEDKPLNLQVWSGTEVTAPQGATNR

| SMILES | EC50 [1] | ED50 [2] | No. Dead/No. Treated Mice [3] | effect on gastric acid secretion ([4]; literature (Black et al.)) | H2 -receptor antagonist potency relative to cimetidine [5] | inhibition of gastric acid secretion relative to cimetidine [4] |
| --- | --- | --- | --- | --- | --- | --- |
| CCNC=Nc1cccc(-c2csc(NC(=N)N)n2)c1 [14(a), N-Ethyl-N'-[3-(2-guanidino-4-thiazolyl)phenyl]-formamidine] | 530 nM | 0.013 mg/kg | 0/5 |  |  |  |
| CCNC=Nc1cccc(-c2nsc(NC(=N)N)n2)c1 [14(ap), N-Ethyl-N'-[3-(5-guanidino-1,2,4-thiadiazol-3-yl)-phenyl]-formamidine] | 450 nM | 0.051 mg/kg | 0/5 |  |  |  |
| CCCNC=Nc1cccc(-c2csc(NC(=N)N)n2)c1 [14(b), N-Propyl-N'-[3-(2-guanidino-4-thiazolyl)-phenyl]-formamidine] | 280 nM | 0.019 mg/kg | 0/5 |  |  |  |
| CC(C)NC=Nc1cccc(-c2csc(NC(=N)N)n2)c1 [14(c), N-Isopropyl-N'-[3-(2-guanidino-4-thiazolyl)-phenyl]-formamidine] | 200 nM | 0.035 mg/kg | 1/5 |  |  |  |
| CCCCNC=Nc1cccc(-c2csc(N=C(N)N)n2)c1 [14(d), N-Butyl-N'-[3-(2-quanidino-4-thiazolyl)-phenyl]-formamidine] | 550 nM | 0.073 mg/kg | 4/5 |  |  |  |
| CCC(C)NC=Nc1cccc(-c2csc(NC(=N)N)n2)c1 (centres unmarked) [14(e), N-sec.Butyl-N'-[3-(2-guanidino-4-thiazolyl)-phenyl]-formamidine] | 300 nM | 0.041 mg/kg | 0/5 |  |  |  |
| CC(C)CNC=Nc1cccc(-c2csc(NC(=N)N)n2)c1 [14(f), N-Isobutyl-N'-[3-(2-guanidino-4-thiazolyl)-phenyl]-formamidine] | 1200 nM | 0.082 mg/kg | 0/5 |  |  |  |
| C=CCNC=Nc1cccc(-c2csc(NC(=N)N)n2)c1 [14(j), N-Allyl-N'-[3-(2-guanidino-4-thiazolyl)-phenyl]-formamidine] | 330 nM | 0.02 mg/kg | 0/5 |  |  |  |
| C#CCNC=Nc1cccc(-c2csc(NC(=N)N)n2)c1 [14(l), N-Propargyl-N'-[3-(2-guanidino-4-thiazolyl)-phenyl]-formamidine] | 3100 nM | 0.074 mg/kg | 0/5 |  |  |  |
| COCCNC=Nc1cccc(-c2csc(NC(=N)N)n2)c1 [14(p), N-(2-Methoxy-ethyl)-N'-[3-(2-guanidino-4-thiazolyl)-phenyl]-formamidine] | 480 nM | 0.05 mg/kg | 0/5 |  |  |  |
| N=C(N)Nc1nc(-c2cccc(N=CNCCCO)c2)cs1 [14(s), N-(3-Hydroxy-propyl)-N'-[3-(2-guanidino-4-thiazolyl)-phenyl]-formamidine] | 270 nM | 0.028 mg/kg | 0/5 |  |  |  |
| CN/C=N/c1cccc(-c2csc(N=C(N)N)n2)c1 [Example 14, N-Methyl-N'-[3-(2-guanidino-4-thiazolyl)-phenyl]-formamidine] | 330 nM | 0.02 mg/kg | 0/5 |  |  |  |
| COc1ccc(CN(CCN(C)C)c2ccccn2)cc1 [mepyramine] |  |  |  | no effect on gastric acid secretion |  |  |
| CNC(=C[N+](=O)[O-])NCCSCc1ccc(CN(C)C)o1 [ranitidine] |  |  |  |  | more potent than cimetidine | more potent than cimetidine |
| CNC(=NCCSCc1csc(N=C(N)N)n1)NC#N [tiotidine] |  |  |  |  | more potent than cimetidine | more potent than cimetidine |

— US4548944A, “Guanidino-heterocyclyl-phenyl-amidines and salts thereof” (Istituto de Angeli S.p.A., priority 1982, dated 1985)
